Test results as given in US20080261911A1, “Uses of diphenyl/diphenylamine carboxylic acids” (priority 2006, published 2008).

How the values were obtained:
VEGF = assay: Immunostaining of VEGF in Panc-1 cells; assay type: cell-based; settings: 50 μM, 48 hr
Description: Panc1 cells are seeded in LAB-TEK® chamber slides (Nalge Nunc International, Naperville, Ill.) at 100,000 cells/well in DME/F12 medium supplemented with 5% fetal bovine serum. Cells are treated with the selected non-steroidal anti-inflammatory drugs and after 48 hr, the media chamber is detached and the remaining glass slides washed in Dulbecco's phosphate buffered saline (PBS). The immunostaining for vascular endothelial growth factor (VEGF) is determined essentially as previously described (Abdelrahim et al, 2005). Briefly, the glass slides are fixed with cold (-20° C.) methanol for 10 min and washed in 0.3% PBS/Tween for 5 min (two times) before blocking with 5% goat serum in antibody dilution buffer (stock solution: 100 ml of PBS/Tween, Ig of bovine serum albumin, 45 ml of glycerol, pH 8.0) for 1 hr at 20° C. After removal of the blocking solution, VEGF rabbit polyclonal antibody (A-20) is added in antibody dilution buffer (1:200) and incubated for 12 hr at 4° C. Slides are washed for 10 min with 0.3% Tween in 0.02 M phosphate buffered saline (three times) and incubated with fluorescein isothiocyanate-conjugated (FITC) goat anti-rabbit antibodies (1:1000 dilution) for 2 hr at 20° C. Slides are then washed for 10 min in 0.3% PBS-Tween (four times). […]

Egr-1 protein = Egr-1 protein expression in L3.6pl cells, Western blot; assay type: cell-based, human; settings: 50 μM, 48 h
Description: Cells are washed once with phosphate buffered saline PBS and collected by scraping in 200 μL of lysis buffer [50 mM HEPES, 0.5M sodium chloride, 1.5 mM magnesium chloride, 1 mM EGTA, 10% (v/v) glycerol, 1% Triton X-100, 5 μL/ml of Protease Inhibitor Cocktail (Sigma)]. The lysates from the cells are incubated on ice for 1 hr with intermittent vortexing followed by centrifugation at 40,000 g for 10 min at 4° C. Equal amounts of protein (60 μg) from each treatment group are diluted with loading buffer, boiled and loaded onto 10 and 12.5% SDS-polyacrylamide gel. For vascular endothelial growth factor immunoblots, 100 μg of protein are used. Samples are electrophoresed, transferred to membranes, and proteins detected by incubation with polyclonal primary antibodies Sp1, Sp3, Sp4, HDAC, VEGF (a-20), c-Met, surviving, VEGF, cleaved PARP, and β-tubulin (H-235) followed by blotting with appropriate horseradish peroxidase-conjugated secondary antibody as previously described (Abdelrahim et al, 2004). After autoradiography, band intensities are determined by a scanning laser densitometer (Sharp Electronics Corporation, Mahwah, N.J.) using ZERO-D SCANALYTICS software (Scanalytics Corporation, Billerica, Mass.).
The proximal region of the VEGFR1 promoter contains GC-rich and Egr-1 sites. […]

[1] = tested on: VEGF promoter constructs pVEGF1 and pVEGF2; assay: VEGF promoter (pVEGF1/pVEGF2) luciferase transactivation in Panc-1 cells; assay type: cell-based; settings: Panc-1 cells; for transactivation of pVEGF2, concentration dependence: 20-80 μM
Description: Transfection of Panc-1 cells with pVEGF1 and pVEGF2 and treatment with 50 μM ampiroxicam and tolfenamic acid (FIGS. 2A, 2B) or diclofenac sodium (FIGS. 2C, 2D) with pVEGF1 or pVEGF2 constructs. Cells were transfected with pVEGF1 or pVEGF2 treated with DMSO, 50 μM ampiroxicam, tolfenamic acid, or diclofenac sodium, and luciferase activity determined. Transfection of L3.6pl cells with pVEGF1 (FIG. 2E) or pVEGF2 constructs (FIG. 2F). […] Panc-1 cells were transfected with pVEGF2, treated with 20, 40, 60 or 80 μM ampiroxicam or tolfenamic acid, and luciferase determined. Results presented herein are means ±SE for three separate determinations per treatment group, and significant (p<0.05) decrease in luciferase activity is indicated by an asterisk.
Cells are cultured in 6-well plates in 2 ml of DME/F12 medium supplemented with 5% fetal bovine serum. After 16-20 hr when cells are 50-60% confluent, reporter gene constructs are transfected using LIPOFECTAMINE™ reagent (Invitrogen, Carlsbad, Calif.). The effects of the selective non-steroidal anti-inflammatory drugs on transactivation are investigated in Panc1 and L3.6pl cells co-transfected with different VEGF constructs (500 ng). […] For proteasome inhibitor experiments, cells will be co-treated with 2 μM lactacystin, and for electrophoretic mobility shift assay (EMSA), nuclear extracts from Panc1 and L3.6pl cells are isolated as described, and aliquots will be stored at −80° C. until used (Abdelrahim et al, 2004; Abdelrahim et al, 2005).
Previous studies have shown COX-2 inhibitors or small interfering RNAs for Sp proteins decreased vascular endothelial growth factor expression in colon and pancreatic cells (Abdelrahim et al, 2005; Baker et al, 2002; Masferrer et al, 2000; Bouwman et al, 2002). The effects of DMSO, 50 μM tolfenamic acid and 50 μM ampiroxicam on vascular endothelial growth factor expression were initially investigated in Panc-1 cells transfected with the pVEGF1 and pVEGF2 constructs, which contain −2018 to +50 and −131 to +54 VEGF promoter inserts, respectively (FIGS. 2A and 2B).

Panc-1 cells = assay: Cell proliferation assay, Panc-1 cells; assay type: cell-based; settings: for growth of Panc-1 pancreatic cancer cells: different concentrations, 6 days, cell counting
Description: FIGS. 6A-6E show comparative effects of non-steroidal anti-inflammatory drugs on Panc-1 cell proliferation and Sp protein expression. Effects of tolfenamic acid (FIG. 6A), ampiroxicam (FIG. 6B), naproxen (FIG. 6C), and diclofenac sodium (FIG. 6D) on Panc-1 cell proliferation. Panc-1 cells were treated with different concentrations of non-steroidal anti-inflammatory drugs for 6 days, and the number of cells were determined on days 2, 4, and 6 by cell counting techniques. […] Panc-1 cells were treated with DMSO, 150 μM ampiroxicam, 150 μM naproxen, and 50 μM tolfenamic acid for 48 hr, and levels of Sp proteins and the cleaved poly (ADP-ribose) polymerase (PARP) protein were determined in whole cell lysates by Western blot analysis. […] Panc1, Panc28 and L3.6pl cells are seeded in DMEM/F12 media with 5% FBS and treated the next day with either vehicle (DMSO) or with the indicated compounds' concentrations. Cells are counted at the indicated times using a Z1™ COULTER COUNTER® cell counter. Each experiment is carried out in triplicate and results expressed as means ±SD for each determination.

[2] = tested on: cleaved poly (ADP-ribose) polymerase (PARP) protein; assay: Apoptosis: cleaved PARP in Panc-1 cells, Western blot; assay type: cell-based; settings: 48 hr
Description: Cells are washed once with phosphate buffered saline PBS and collected by scraping in 200 μL of lysis buffer [50 mM HEPES, 0.5M sodium chloride, 1.5 mM magnesium chloride, 1 mM EGTA, 10% (v/v) glycerol, 1% Triton X-100, 5 μL/ml of Protease Inhibitor Cocktail (Sigma)]. The lysates from the cells are incubated on ice for 1 hr with intermittent vortexing followed by centrifugation at 40,000 g for 10 min at 4° C. Equal amounts of protein (60 μg) from each treatment group are diluted with loading buffer, boiled and loaded onto 10 and 12.5% SDS-polyacrylamide gel. […] Samples are electrophoresed, transferred to membranes, and proteins detected by incubation with polyclonal primary antibodies Sp1, Sp3, Sp4, HDAC, VEGF (a-20), c-Met, surviving, VEGF, cleaved PARP, and β-tubulin (H-235) followed by blotting with appropriate horseradish peroxidase-conjugated secondary antibody as previously described (Abdelrahim et al, 2004). After autoradiography, band intensities are determined by a scanning laser densitometer (Sharp Electronics Corporation, Mahwah, N.J.) using ZERO-D SCANALYTICS software (Scanalytics Corporation, Billerica, Mass.).

Row | SMILES | immunostaining of secreted vascular endothelial growth factor protein (VEGF) | Egr-1 protein (Egr-1 protein) | luciferase activity, pVEGF1 and pVEGF2 constructs ([1]; 50 μM) | luciferase activity, pVEGF2 ([1]; 50 μM, in presence or absence of lactacystin) | transactivation of pVEGF2, concentration dependence [1] | growth of Panc-1 pancreatic cancer cells (Panc-1 cells) | poly (ADP-ribose) polymerase cleavage ([2]; 150 μM) | relative potency in Panc-1 growth inhibition (Panc-1 cells; compared with ampiroxicam and naproxen) | poly (ADP-ribose) polymerase cleavage ([2]; 50 μM)
1 | CCOC(=O)OC(C)OC1=C(C(=O)Nc2ccccn2)N(C)S(=O)(=O)c2ccccc21 (centres unmarked) [ampiroxicam] | significant lawn of extracellular vascular endothelial growth factor staining | unchanged in all treatment groups | but not ampiroxicam, significantly decreased activities | did not affect luciferase activity | showed no effect | decreased growth of Panc-1 pancreatic cancer cells | only tolfenamic acid induced protein degradation and poly (ADP-ribose) polymerase cleavage |  | 
2 | Cc1c(Cl)cccc1Nc1ccccc1C(=O)O [tolfenamic acid] | almost non-detectable | unchanged in all treatment groups | significantly decreased activities |  | concentration-dependent decrease in transactivation | decreased growth of Panc-1 pancreatic cancer cells |  | exhibited higher potencies | induced protein degradation and poly (ADP-ribose) polymerase cleavage
